Measured values published in patent US5872115A, “2-ureido-benzamide derivatives” (Grelan Pharmaceutical Co. Ltd., priority 1995, dated 1999).
Read-outs that look alike come from different tables or passages of the source.

What was measured:
[1] = molecular target: T1, THP-1 microsomal ACAT (Homo sapiens, UniProt P35610); test: In vitro test using THP-1 microsome (ACAT inhibition); assay type: biochemical
T1 construct: ACAT enzyme fraction was prepared from microsome of human leukemia THP-1 cell; endogenous in cells; host or cells: THP-1 (human leukemia), microsomes
T1 sequence (P35610 1-550): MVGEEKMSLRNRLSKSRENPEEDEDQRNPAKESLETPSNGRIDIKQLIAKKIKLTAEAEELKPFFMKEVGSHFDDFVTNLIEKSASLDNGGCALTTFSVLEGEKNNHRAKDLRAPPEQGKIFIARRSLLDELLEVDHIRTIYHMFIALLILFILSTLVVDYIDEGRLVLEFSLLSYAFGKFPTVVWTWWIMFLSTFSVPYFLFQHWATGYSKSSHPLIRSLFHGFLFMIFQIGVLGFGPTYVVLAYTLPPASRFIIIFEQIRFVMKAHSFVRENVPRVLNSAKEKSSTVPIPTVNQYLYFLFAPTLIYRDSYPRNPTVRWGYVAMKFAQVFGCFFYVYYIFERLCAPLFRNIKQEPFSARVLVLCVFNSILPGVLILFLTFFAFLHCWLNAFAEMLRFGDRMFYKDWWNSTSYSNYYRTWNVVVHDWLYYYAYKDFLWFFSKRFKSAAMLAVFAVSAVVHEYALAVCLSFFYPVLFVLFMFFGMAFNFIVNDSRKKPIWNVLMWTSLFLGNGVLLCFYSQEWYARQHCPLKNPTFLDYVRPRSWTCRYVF
Procedure: (4) In Vitro Test Using THP-1 Microsome
Then, the reaction was initiated by the addition of 5 nmoles of labeled [^14 C] oleoyl-CoA dissolved in 20 μl of said phosphate buffer solution containing BSA and the reaction was stopped by the addition of 20 μl of 2N HCl after 10 minutes. [^14 C] cholesterol-oleate formed was separated by thin-layer chromatography and the radioactivity was counted with liquid scintillation counter.
ACAT inhibitory activities of the test compounds were shown as IC50 values.

[2] = molecular target: T1, THP-1 microsomal ACAT; test: Bioavailability assessment of ACAT inhibitors by their ex vivo activity (serum of dosed mice on THP-1 microsomal ACAT); assay type: in vivo
Procedure: (5) Bioavailability Assessment of ACAT Inhibitors by Their <<ex vivo>> Activity
[…] Blood samples were collected 0.5, 1, 1.5, 2, 6 hour postdose. Serum were harvested after gentle centrifugation and stored at -20.
The following day, 10 μl serum were preincubated at 37 for 5 minutes with 20 μl of THP-1 microsomal ACAT and then incubated 10 minutes with 20 μl of radiolabeled oleoyl-CoA as described above in method (4). The serum is used instead of the drug solution.
ACAT inhibitory activities of the test compounds were shown as maximum inhibition percentages (Imax).

[3] = THP-1 microsome, read-out: IC50 THP1 microsome
[4] = female mice, 30 mg/kg per os, 1% CMC-Na 0.2% Tween 80, maximum inhibition by serum
[5] = tested at 100 mg/kg in a suspension of 0.5% CMC-Na (footnote *)

Row | SMILES | IC50 [1, 3] [nM] | Imax Ex vivo [2, 4] [%] | Imax Ex vivo [2, 5] [%] | IC50 [1] [nM]
1 | CCCCNC(=O)Nc1ccc(OC(=O)NCCCC)cc1C(=O)NCC1CCN(C(c2ccccc2)c2ccccc2)CC1 [77 (b), 5-n-butylcarbamyloxy-2-(N'-n-butylureido)-N-[(1-diphenylmethylpiperidin-4-yl)methyl]benzamide] |  | 41.37 |  | 50
2 | COCCCNC(=O)Nc1ccc(N(C)C)cc1C(=O)NCC1CCN(C(c2ccccc2)c2ccccc2)CC1 [Example 103, 2-(N'-3-Methoxypropylureido)-5dimethylamino-N-[(1-diphenylmethylpiperidin-4-yl)methyl]benzamide] | 90 |  |  | 
3 | COCCCNC(=O)Nc1ccc(N2CCOCC2)cc1C(=O)NCC1CCN(C(c2ccccc2)c2ccccc2)CC1 [Example 104, 2-(N'-3-Methoxypropylureido)-5-(morpholin-4-yl)-N-[(1-diphenylmethylpiperidin-4-yl)methyl]benzamide] | 100 |  |  | 
4 | CCCCNC(=O)Nc1ccc(OC)cc1C(=O)NCC1CCN(C(c2ccccc2)c2ccccc2)CC1 [Example 67, 2-(N'-Butylureido)-5-methoxy-N-[(1-diphenylmethylpiperidin-4-yl)methyl]-benzamide] | 50 | 51.97 |  | 
5 | CCCCCCCNC(=O)Nc1ccc(N2CCCC2)cc1C(=O)NCC1CCN(C(c2ccccc2)c2ccccc2)CC1 [Example 85, 2-(N'-n-Heptylureido)-5-(pyrrolidin-1-yl)-N-[(1-diphenylmethylpiperidin-4-yl)methyl]-benzamide] | 60 | 11.33 |  | 
6 | CCCCNC(=O)Nc1ccc(N)cc1C(=O)NCC1CCN(C(c2ccccc2)c2ccccc2)CC1 [Example 109, 5-Amino-2-(N'-n-butylureido)-N-[(1-diphenylmethylpiperidin-4-yl)methyl]-benzamide] | 400 |  |  | 
7 | CCCCCCCNC(=O)Nc1ccc(-n2ccnc2)cc1C(=O)NCC1CCN(C(c2ccccc2)c2ccccc2)CC1 [Example 79, 2(N'-n-Heptylureido)-5-(imidazol-1-yl)-N-[(1-diphenylmethylpiperidin-4-yl)methyl]-benzamide] | 220 |  | 63.26 | 
8 | CCCCNC(=O)Nc1ccc(OCC)cc1C(=O)NCC1CCN(C(c2ccccc2)c2ccccc2)CC1 [Example 68, 2-(N'-n-Butylureido)-5-ethoxy-N-[(1-diphenylmethylpiperidin-4-yl)methyl]-benzamide] | 30 | 50.51 |  | 
9 | CCCCCCCNC(=O)Nc1ccc(-n2cccn2)cc1C(=O)NCC1CCN(C(c2ccccc2)c2ccccc2)CC1 [Example 84, 2-(N'-n-Heptylureido)-5-(pyrazol-1-yl)-N-[(1-diphenylmethylpiperidin-4-yl)-methyl]-benzamide] | 100 | 5.75 |  | 
10 | CCCCNC(=O)Nc1ccc(S(C)(=O)=O)cc1C(=O)NCC1CCN(C(c2ccccc2)c2ccccc2)CC1 [Example 111 (b), 2-(N'-n-butylureido)-5-methylsulfonyl-N-[(1-diphenylmethylpiperidin-4-yl)-methyl]benzamide] | 90 | 63.56 |  | 
11 | CCCCNC(=O)Nc1ccc(N2CCCC2)cc1C(=O)NCC1CCN(C(c2ccccc2)c2ccccc2)CC1 [Example 65, 2-(N'-n-Butylureido)-5-(pyrrolidin-1-yl)-N-[(1-diphenylmethylpiperidin-4-yl)methyl]-benzamide] | 60 | 37.43 |  | 
12 | CCCCNC(=O)Nc1ccc([S+](C)[O-])cc1C(=O)NCC1CCN(C(c2ccccc2)c2ccccc2)CC1 (stereo not shown) [111 (a)] | 100 | 62.01 |  | 
13 | O=C(NCC1CC1)Nc1ccc(N2CCOCC2)cc1C(=O)NCC1CCN(C(c2ccccc2)c2ccccc2)CC1 [Example 105, 2-(N'-Cyclopropylmethylureido)-5-(morpholin-4-yl)-N-[(1-diphenylmethylpiperidin-4-yl)methyl]benzamide] | 100 |  |  | 
14 | CCCCCCCNC(=O)Nc1ccc(N2CCOCC2)cc1C(=O)NCC1CCN(C(c2ccccc2)c2ccccc2)CC1 [Example 82, 2-(N'-n-Heptylureido)-5-(morpholin-4-yl)-N-[(1-diphenylmethylpiperidin-4-yl)methyl]-benzamide] | 100 | 50.15 |  | 
15 | CCCCCCCNC(=O)Nc1ccc(N2CCCCC2)cc1C(=O)NCC1CCN(C(c2ccccc2)c2ccccc2)CC1 [Example 83, 2-(N'-n-Heptylureido)-5-(piperidin-1-yl)-N-[(1-diphenylmethylpiperidin-4-yl)methyl]benzamide] | 270 |  |  | 
16 | CCCCNC(=O)Nc1ccc(OCC2CC2)cc1C(=O)NCC1CCN(C(c2ccccc2)c2ccccc2)CC1 [Example 69, 2-(N'-n-Butylureido)-5-cyclopropylmethoxy-N-[(1-diphenylmethylpiperidin-4-yl)methyl]-benzamide] | 30 | 40.11 |  | 
17 | CCCCNC(=O)Nc1ccc(SC)cc1C(=O)NCC1CCN(C(c2ccccc2)c2ccccc2)CC1 [Example 73] | 20 | 38.17 |  | 
18 | CCCCNC(=O)Nc1ccc(NC)cc1C(=O)NCC1CCN(C(c2ccccc2)c2ccccc2)CC1 [Example 112, 5-Methylamino-2-(N'-n-butylureido)-N-[(1-diphenylmethylpiperidin-4-yl)methyl]benzamide] | 200 |  |  | 

More lines, main results first:

Row | IC50 [1, 3] [nM] | Imax Ex vivo [2, 4] [%] | Imax Ex vivo [2, 5] [%] | SMILES | IC50 [1] [nM]
19 | 220 |  |  | CCCCCCCNC(=O)Nc1ccc(C(C)C)cc1C(=O)NCC1CCN(C(c2ccccc2)c2ccccc2)CC1 [Example 106, 2-(N'-n-Heptylureido)-5-isopropyl-N-[(1-diphenylmethylpiperidin-4-yl)methyl]benzamide] | 
20 | 40 |  |  | CCCCCCCNC(=O)Nc1ccc(OCC)cc1C(=O)NCC1CCN(C(c2ccccc2)c2ccccc2)CC1 [Example 86, 5-Ethoxy-2-(N'-n-heptylureido)-N-[(1-diphenylmethylpiperidin-4-yl)methyl]-benzamide] | 
21 | 100 | 28.35 |  | CCCCCCCNC(=O)Nc1ccc(N(C)C)cc1C(=O)NCC1CCN(C(c2ccc(OC)cc2)c2ccc(OC)cc2)CC1 [Example 94, 2-(N'-n-Heptylureido)-5-dimethylamino-N-[[1-bis(4-methoxyphenyl)methylpiperidin-4yl]methyl]benzamide] | 
22 | 40 | 24.17 |  | CCCCCCCNC(=O)Nc1ccc(N(C)C)cc1C(=O)NCC1CCN(C(c2ccc(F)cc2)c2ccc(F)cc2)CC1 [Example 93, 2-(N'-n-Heptylureido)-5-dimethylamino-N-[[1-bis(4-fluorophenyl)methylpiperidin-4-yl]-methyl]benzamide] | 
23 | 170 |  |  | CCCCCCCCCCNC(=O)Nc1ccc(N(C)C)cc1C(=O)NCC1CCN(C(c2ccccc2)c2ccccc2)CC1 [Example 80, 2-(N'-n-Decylureido)-5-dimethylamino-N-[(1-diphenylmethylpiperidin-4-yl)methyl]-benzamide] | 
24 | 40 |  | 74.11 | CCCCCCCNC(=O)Nc1ccc(OC)cc1C(=O)NCC1CCN(C(c2ccccc2)c2ccccc2)CC1 [Example 81, 2-(N'-n-Heptylureido)-5-methoxy-N-[(1-diphenylmethylpiperidin-4-yl)methyl]benzamide] | 
25 | 40 | 39.01 |  | CCCCCNC(=O)Nc1ccc(N(C)C)cc1C(=O)NCC1CCN(C(c2ccccc2)c2ccccc2)CC1 [Example 100, 5-Dimethylamino-2-(N'-n-pentylureido)-N-[(1-diphenylmethylpiperidin-4-yl)methyl]benzamide] | 
26 | 300 |  |  | CCCCCCCNC(=O)Nc1ccc(N(C)C)cc1C(=O)NCC1CCN(C(c2ccc(Cl)cc2)c2ccc(Cl)cc2)CC1 [Example 92, 2-(N'-n-Heptylureido)-5-dimethylamino-N-[[1-bis(4-chlorophenyl)methylpiperidin-4-yl]-methyl]benzamide] | 
27 | 200 |  |  | CCCCCCCNC(=O)Nc1ccc(N(CC)CC)cc1C(=O)NCC1CCN(C(c2ccccc2)c2ccccc2)CC1 [Example 87, 5-Diethylamino-2-(N'-n-heptylureido)-N-[(1-diphenylmethylpiperidin-4-yl)-methyl]-benzamide] | 
28 | 80 | 61.47 |  | CCCCCCCNC(=O)Nc1ccc(N(C)C(C)=O)cc1C(=O)NCC1CCN(C(c2ccccc2)c2ccccc2)CC1 [Example 91, 5-(N-Acetyl-N-methyl)amino-2-(N'-n-heptylureido)-N-[(1-diphenylmethylpiperidin-4-yl)-methyl]benzamide] | 
29 | 60 |  |  | CCCCCCCNC(=O)Nc1ccc(N(C)C)cc1C(=O)NCC1CCCN(C(c2ccccc2)c2ccccc2)C1 (stereo not shown) [Example 89, 2-(N'-n-Heptylureido)-5-dimethylamino-N-[(1-diphenylmethylpiperidin-3-yl)methyl]-benzamide] | 
